“And” between values parts separate entries of the source, which are not always exact repeats. Identical values can stand only once. Like-named read-outs stand apart in the source and are kept apart here.
Legend:
[1] = tested on: cutaneous herpes simplex type 1 infections; assay: Inhibition of cutaneous herpes on guinea pigs; type: in vivo, guinea pig; settings: scale 0 to 3
Text: The effect of cutaneous herpes simplex type 1 infections have been measured in a guinea pig model described by Hubler et al. J. Invest Dermatol 69 (1974) 92. […] The appearance of an infected treated area and a similar infected untreated (only isopropanol-glycerol-water) area was scored daily on a scale from 0 to 3. The total effect is judged from the score at day 5.

herpes simplex type 1 = assay: Plaque reduction assay for herpes simplex type 1 on GMK monolayers; type: cell-based; settings: for inhibition at 400 µM: Human alphaherpesvirus 1, 400 μM test compound; for inhibition at 500 µM: Human alphaherpesvirus 1, 500 μM test compound
Protocol: The plaque reduction assay for herpes simplex type 1 was performed on GMK (Green Monkey Kidney) cells as described by Ejereito et al. J. Gen. Virol. 2 (1968) 357. Monolayers on 5 cm petri dishes were used and after virus adsorption the test compound was added in the medium.
The plaque reduction assay for herpes simplex type 1 was performed on GMK (Green Monkey Kidney) cells as described by Ejereito et al. J. Gen. Virol 2 (1968) 357. Monolayers on 5 cm petri dishes were used and after virus adsorption the test compound was added in the medium.
Inhibition of herpes simplex type 1 plaque on GMK monolayers

[2] = tested on: influenza (WSN Wilson Smith Neurotropic type A); assay: Inhibition of influenza WSN plaque on MDCK monolayers; type: cell-based, influenza virus
[3] = Preliminary acute toxicity test in mice; type: in vivo; settings: groups of two male NMRI mice
Protocol: A preliminary acute toxicity test was carried out in mice. Groups of two male mice of the NMRI strain weighing 20-21 g received the test compound in doses of 62.5-500 mg/kg ip. The compound was given as a solution in 0.9% NaCl. The number of animals dead 24 hours after injection was as follows.

influenza Victoria = assay: Inhibition of influenza Victoria plaque on MDCK monolayers; type: cell-based, influenza virus
[4] = treated in 0.1% Tween 80-10% aqueous glycerol, start of treatment 24 hours after infection
[5] = treated in 0.1% Tween 80-10% aqueous glycerol
[6] = topical 2% solution, start of treatment 24 hours after infection
[7] = topical 2% solution in isopropanol-glycerol-water twice daily for 3 days starting 4 hours after infection
[8] = Day 1, 10 μmol intraperitoneally, urine of two NMRI male mice
[9] = Day 2, 10 μmol intraperitoneally, urine of two NMRI male mice
[10] = Day 3, 10 μmol intraperitoneally, urine of two NMRI male mice

With `CCOC(=O)c1ccc(OC(=O)P(=O)([O-])[O-])cc1.[Na+].[Na+]` [VIS 242, Disodium p-(ethoxycarbonyl)phenoxycarbonylphosphonate] the “Score at day 5, treated” value [1, 4] was 1.

Work on `O=C(Oc1ccc(Cl)c(Cl)c1)P(=O)(O)O` [VIS 135, Disodium 3,4-dichlorophenoxycarbonylphosphonate] yielded an inhibition at 100 µM (herpes simplex type 1; Human alphaherpesvirus 1, 100 μM test compound) of 85%.

With `COc1ccc(OP(=O)([O-])C(=O)Oc2ccccc2)cc1.[Na+]` [VIS 058, Sodium p-methoxyphenyl phenoxycarbonylphosphonate] the “Inhibition (%)” value ([2]; 100 μM test compound) was 84%, the “Inhibition (%)” value ([2]; 500 μM test compound) was greater than 99.9% and the “Inhibition (%)” value (herpes simplex type 1; 10 μM test compound) was ~ 50%. For the same compound, the “Inhibition (%)” value (herpes simplex type 1; 40 μM test compound) was greater than 90%, the “Inhibition (%)” value (herpes simplex type 1; 100 μM test compound) was 88% and the “Inhibition (%)” value (herpes simplex type 1; 500 μM test compound) was greater than 99.9%.

For `O=C(O)P(=O)(O)O` [drawing 121, reference compound], the “Recovered phosphonoformic acid activity in urine” value (mouse, in vivo, ip) was 1.25 μmol phosphonoformic acid.

In the case of `Cc1ccc(OP(=O)(O)C(=O)O)cc1` [VIS 059, p-tolyl disodium oxycarbonylphosphonate], the “Score at day 5, treated” value [1, 5] is reported as 1 and 2, the “Inhibition (%)” value ([2]; 20 μM test compound, 20 µM) is reported as 58% and 36% and the “Inhibition (%)” value ([2]; 500 μM test compound, 500 µM) is reported as > 99.9% and 91% and 92%. The “Inhibition (%)” value (herpes simplex type 1; 5 μM test compound, 5 µM) was 57% and > 90%, the “Inhibition (%)” value (herpes simplex type 1; 20 μM test compound) was 95% and the “Inhibition (%)” value (herpes simplex type 1; 100 μM test compound) was greater than 99.9%. The “Inhibition (%)” value (herpes simplex type 1; 500 μM test compound) was greater than 99.9%.

With `COc1ccc(OC(=O)P(=O)([O-])[O-])cc1.[Na+].[Na+]` [VIS 239, Disodium p-methoxyphenoxycarbonylphosphonate] the “Score at day 5, treated” value [1, 4] was 1, the “Inhibition (%)” value (herpes simplex type 1; 500 μM test compound, 500 µM) was 36% and 52% and 70% and the inhibition at 400 µM (herpes simplex type 1) was roughly 60%. For the same compound, the inhibition at 600 µM (herpes simplex type 1; Human alphaherpesvirus 1, 600 μM test compound) was greater than 90%.

With `O=C(Oc1ccccc1)P(=O)(O)O` [drawing 123] the “number of animals dead 24 hours after injection” value (from here on “number of animals dead 24 hours”) ([3]; 62.5 mg/kg ip) was 0/2, the “number of animals dead 24 hours” value ([3]; 125 mg/kg ip) was 0/2 and the “number of animals dead 24 hours” value ([3]; 250 mg/kg ip) was 0/2. For the same compound, the “number of animals dead 24 hours” value ([3]; 500 mg/kg ip) was 0/2.

For `O=C(Oc1ccc(Cl)cc1)P(=O)([O-])[O-].[Na+].[Na+]` [VIS 238, Disodium p-chlorophenoxycarbonylphosphonate], the “Score at day 5, treated” value [1, 4] was 1, the “Inhibition (%)” value (herpes simplex type 1; 100 μM test compound, 100 µM) was 52% and ~ 90% and the “Inhibition (%)” value (herpes simplex type 1; 500 μM test compound, 500 µM) was 99%. It also gave an inhibition at 500 µM (herpes simplex type 1) of 96%.

For `Cc1ccc(OP(=O)(Oc2ccc(C)cc2)C(=O)Oc2ccccc2)cc1` [VIS 056, Di-p-tolyl phenoxycarbonylphosphonate], the “Inhibition (%)” value (influenza Victoria; 200 μM test compound) was 75%, the “Inhibition (%)” value (herpes simplex type 1; 100 μM test compound) was greater than 99% and the “Inhibition (%)” value (herpes simplex type 1; 500 μM test compound) was greater than 99%.

With `Cc1ccc(OP(=O)([O-])C(=O)Oc2ccccc2)cc1.[Na+]` [VIS 065, sodium p-tolyl phenoxycarbonylphosphonate] the “Inhibition (%)” value (influenza Victoria; 200 μM test compound) was 76%, the “Inhibition (%)” value (influenza Victoria; 500 μM test compound) was greater than 99% and the “Inhibition (%)” value (herpes simplex type 1; 10 μM test compound) was ~ 50%. For the same compound, the “Inhibition (%)” value (herpes simplex type 1; 20 μM test compound) was greater than 90%.

With `O=C(Oc1ccccc1)P(=O)(Oc1ccccc1)Oc1ccccc1` [VIS 040, Hydroxycarbonylphosphonic Acid Triphenyl Ester] the “Score at day 5, treated” value [1, 6] was 0, the “Inhibition (%)” value ([2]; 100 μM test compound) was 90% and the “Inhibition (%)” value ([2]; 500 μM test compound) was greater than 99%.

In the case of `O=C(O)P(=O)(O)Oc1ccc2c(c1)CCC2` [VIS 442, 5-Indanyl disodium oxycarbonylphosphonate], the “Score at day 5, treated” value [1, 4] is reported as 1, the “Inhibition (%)” value ([2]; 500 μM test compound) is reported as 94% and the “Inhibition (%)” value (herpes simplex type 1; 10 μM test compound) is reported as greater than 90%. For the same compound, the “Inhibition (%)” value (herpes simplex type 1; 500 μM test compound) was greater than 99.9%.

For `O=C(Oc1ccccc1)P(=O)([O-])Oc1ccccc1.[Na+]` [VIS 043, Sodium phenyl phenoxycarbonylphosphonate], the “Score at day 5, treated” value [1, 6] was 0, the “Inhibition (%)” value ([2]; 20 μM test compound, 20 µM) was 62% and 47% and the “Inhibition (%)” value ([2]; 100 μM test compound, 100 µM) was 84% and 90% and > 99.9%. The “Inhibition (%)” value ([2]; 500 μM test compound) was greater than 99.9%, the “Inhibition (%)” value (herpes simplex type 1; 20 μM test compound) was ~ 0% and the “Inhibition (%)” value (herpes simplex type 1; 40 μM test compound) was greater than 90.9%. The “Inhibition (%)” value (herpes simplex type 1; 100 μM test compound, 100 µM) was > 99.9% and > 99% and the “Inhibition (%)” value (herpes simplex type 1; 500 μM test compound) was greater than 99.9%.

With `O=C(Oc1ccccc1)P(=O)([O-])[O-].[Na+].[Na+]` [VIS 412, Disodium phenoxycarbonylphosphonate] the “Score at day 5, treated” value [1, 7] was 0, the “Score at day 5, treated” value [1, 6] was 0 and the “Inhibition (%)” value (herpes simplex type 1; 500 μM test compound, 500 µM) was 88%. For the same compound, the inhibition at 60 µM (herpes simplex type 1; Human alphaherpesvirus 1, 60 μM test compound) was roughly 50% and the inhibition at 500 µM (herpes simplex type 1) was 80%.

For `O=C(O)P(=O)(O)Oc1ccccc1` [VIS 041, Phenyl disodium oxycarbonylphosphonate], the “Score at day 5, treated” value [1, 6] was 0, the “Inhibition (%)” value ([2]; 500 μM test compound) was greater than 99.9% and the “Inhibition (%)” value (herpes simplex type 1; 10 μM test compound) was ~ 50%. The “Inhibition (%)” value (herpes simplex type 1; 40 μM test compound) was greater than 90%, the “Inhibition (%)” value (herpes simplex type 1; 100 μM test compound, 100 µM) was > 99.9% and 99% and the “Inhibition (%)” value (herpes simplex type 1; 500 μM test compound) was greater than 99.9%.

With `Cc1ccc(OC(=O)P(=O)(O)O)cc1` [drawing 119] the “Recovered phosphonoformic acid activity in urine” value [8] was 1.25 μmol phosphonoformic acid, the “Recovered phosphonoformic acid activity in urine” value [9] was 0.25 μmol phosphonoformic acid and the “Recovered phosphonoformic acid activity in urine” value [10] was 0.10 μmol phosphonoformic acid.

For `O=C(O)P(=O)(O)Oc1ccc(Cl)cc1` [VIS 066, p-chlorophenyl disodium oxycarbonylphosphonate], the “Inhibition (%)” value ([2]; 100 μM test compound) was 54%, the “Inhibition (%)” value ([2]; 500 μM test compound) was greater than 99.9% and the “Inhibition (%)” value (herpes simplex type 1; 5 μM test compound, 5 µM) was 89% and ~ 75%. The “Inhibition (%)” value (herpes simplex type 1; 10 μM test compound) was greater than 90%, the “Inhibition (%)” value (herpes simplex type 1; 20 μM test compound) was 98% and the “Inhibition (%)” value (herpes simplex type 1; 100 μM test compound) was greater than 99.9%. For the same compound, the “Inhibition (%)” value (herpes simplex type 1; 500 μM test compound) was greater than 99.9%.

With `O=C(Oc1ccccc1)P(=O)([O-])Oc1ccc(Cl)cc1.[Na+]` [VIS 063, sodium p-chlorophenyl phenoxycarbonylphosphonate] the “Score at day 5, treated” value [1, 7] was 2 and 3, the “Inhibition (%)” value ([2]; 100 μM test compound) was 72% and the “Inhibition (%)” value ([2]; 500 μM test compound) was greater than 99.9%. The “Inhibition (%)” value (herpes simplex type 1; 5 μM test compound) was ~ 50%, the “Inhibition (%)” value (herpes simplex type 1; 10 μM test compound) was greater than 90% and the “Inhibition (%)” value (herpes simplex type 1; 20 μM test compound) was 69%. The “Inhibition (%)” value (herpes simplex type 1; 100 μM test compound) was greater than 99.9% and the “Inhibition (%)” value (herpes simplex type 1; 500 μM test compound) was greater than 99.9%.

In the case of `O=C(O)P(=O)(O)Oc1ccccc1` [drawing 120], the “Recovered phosphonoformic acid activity in urine” value [8] is reported as 1.00 μmol phosphonoformic acid, the “Recovered phosphonoformic acid activity in urine” value [9] is reported as 0.25 μmol phosphonoformic acid and the “Recovered phosphonoformic acid activity in urine” value [10] is reported as 0.25 μmol phosphonoformic acid.

In the case of `O=C(Oc1ccccc1)P(=O)(O)Oc1ccccc1`, the “number of animals dead 24 hours” value ([3]; 62.5 mg/kg ip) is reported as 0/2, the “number of animals dead 24 hours” value ([3]; 125 mg/kg ip) is reported as 0/2 and the “number of animals dead 24 hours” value ([3]; 250 mg/kg ip) is reported as 0/2. The “number of animals dead 24 hours” value ([3]; 500 mg/kg ip) was 0/2.

In the case of `Cc1ccc(OC(=O)P(=O)([O-])[O-])cc1.[Na+].[Na+]` [VIS 130, Disodium p-tolyloxycarbonylphosphonate], the “Score at day 5, treated” value [1, 4] is reported as 1, the inhibition at 200 µM (herpes simplex type 1; Human alphaherpesvirus 1, 200 μM test compound) is reported as roughly 80% and the inhibition at 400 µM (herpes simplex type 1) is reported as greater than 90%.

For `O=C(O)P(=O)(O)Oc1ccccc1` [drawing 125], the “number of animals dead 24 hours” value ([3]; 62.5 mg/kg ip) was 0/2, the “number of animals dead 24 hours” value ([3]; 125 mg/kg ip) was 0/2 and the “number of animals dead 24 hours” value ([3]; 250 mg/kg ip) was 0/2. The “number of animals dead 24 hours” value ([3]; 500 mg/kg ip) was 0/2.

For `COc1ccc(OP(=O)(O)C(=O)O)cc1` [VIS 067, p-Methoxyphenyl disodium oxycarbonylphosphonate], the “Score at day 5, treated” value [1, 5] was 1, the “Inhibition (%)” value ([2]; 100 μM test compound) was 58% and the “Inhibition (%)” value ([2]; 500 μM test compound, 500 µM) was 73% and > 99.9%. For the same compound, the “Inhibition (%)” value (herpes simplex type 1; 5 μM test compound) was 57%, the “Inhibition (%)” value (herpes simplex type 1; 20 μM test compound) was 87% and the “Inhibition (%)” value (herpes simplex type 1; 100 μM test compound) was 99%. For the same compound, the “Inhibition (%)” value (herpes simplex type 1; 500 μM test compound) was greater than 99.9%.
